Test results taken from PubChem BioAssay (NCI).
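Five compound concentrations were applied to cells in 96-well plates for 48 hours; endpoints were derived by simple linear interpolation of the resulting dose-response curve. Definition used: TGI = concentration required for complete inhibition of growth.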

Assays:
Test in all cases: DTP human tumour cell line panel, 48 h
SK-MEL-2 melanoma = system: SK-MEL-2 melanoma
HT29 colon = system: HT29 colon
SNB-19 CNS = system: SNB-19 CNS
M19-MEL melanoma = system: M19-MEL melanoma
OVCAR-3 ovarian = system: OVCAR-3 ovarian
SW-620 colon = system: SW-620 colon
UO-31 renal = system: UO-31 renal
MOLT-4 leukemia = system: MOLT-4 leukemia
CAKI-1 renal = system: CAKI-1 renal
UACC-62 melanoma = system: UACC-62 melanoma
HCT-116 colon = system: HCT-116 colon
M14 melanoma = system: M14 melanoma
A549 NSCLC = system: A549 NSCLC
CCRF-CEM leukemia = system: CCRF-CEM leukemia
NCI-H226 lung = system: NCI-H226 lung
IGROV1 ovarian = system: IGROV1 ovarian
SF-539 CNS = system: SF-539 CNS
MALME-3M melanoma = system: MALME-3M melanoma
LXFL 529 NSCLC = system: LXFL 529 NSCLC
EKVX NSCLC = system: EKVX NSCLC
OVCAR-4 ovarian = system: OVCAR-4 ovarian
COLO 205 colon = system: COLO 205 colon
RPMI-8226 leukemia = system: RPMI-8226 leukemia
HOP-92 NSCLC = system: HOP-92 NSCLC
DLD-1 colon = system: DLD-1 colon
HL-60(TB) leukemia = system: HL-60(TB) leukemia
HOP-62 NSCLC = system: HOP-62 NSCLC
SK-MEL-5 melanoma = system: SK-MEL-5 melanoma
SK-OV-3 ovarian = system: SK-OV-3 ovarian
DMS 114 small cell lung = system: DMS 114 small cell lung
HCC-2998 colon = system: HCC-2998 colon
HOP-18 NSCLC = system: HOP-18 NSCLC
KM12 colon = system: KM12 colon
SNB-78 CNS = system: SNB-78 CNS
OVCAR-8 ovarian = system: OVCAR-8 ovarian
786-0 renal = system: 786-0 renal
TK-10 renal = system: TK-10 renal
SF-295 CNS = system: SF-295 CNS
K-562 leukemia = system: K-562 leukemia
UACC-257 melanoma = system: UACC-257 melanoma
NCI-H460 lung = system: NCI-H460 lung
KM20L2 colon = system: KM20L2 colon
SNB-75 CNS = system: SNB-75 CNS
OVCAR-5 ovarian = system: OVCAR-5 ovarian
RXF 393 renal = system: RXF 393 renal
SF-268 CNS = system: SF-268 CNS
NCI-H23 lung = system: NCI-H23 lung
NCI-H522 lung = system: NCI-H522 lung
U251 CNS = system: U251 CNS
ACHN renal = system: ACHN renal
SR leukemia = system: SR leukemia
A498 renal = system: A498 renal
SK-MEL-28 melanoma = system: SK-MEL-28 melanoma
DMS 273 small cell lung = system: DMS 273 small cell lung
HCT-15 colon = system: HCT-15 colon
SN12C renal = system: SN12C renal

`CSc1nc(NC2OC(COC(C)=O)C(OC(C)=O)C(OC(C)=O)C2OC(C)=O)c(N=C(C)C(C)=O)c(=O)n1C` (stereo not given) gave a TGI (SK-MEL-2 melanoma) greater than 100 µM, a TGI (HT29 colon) greater than 100 µM and a TGI (SNB-19 CNS) greater than 100 µM. For the same molecule, the TGI (M19-MEL melanoma) was greater than 100 µM, the TGI (OVCAR-3 ovarian) was greater than 100 µM and the TGI (SW-620 colon) was greater than 100 µM. The TGI (UO-31 renal) was greater than 100 µM, the TGI (MOLT-4 leukemia) was greater than 100 µM and the TGI (CAKI-1 renal) was greater than 100 µM. It also gave a TGI (UACC-62 melanoma) greater than 100 µM, a TGI (HCT-116 colon) greater than 100 µM and a TGI (M14 melanoma) greater than 100 µM. For the same molecule, the TGI (A549 NSCLC) was greater than 100 µM, the TGI (CCRF-CEM leukemia) was greater than 100 µM and the TGI (NCI-H226 lung) was greater than 100 µM. For the same molecule, the TGI (IGROV1 ovarian) was greater than 100 µM, the TGI (SF-539 CNS) was greater than 100 µM and the TGI (MALME-3M melanoma) was greater than 100 µM. It also gave a TGI (LXFL 529 NSCLC) greater than 100 µM, a TGI (EKVX NSCLC) greater than 100 µM and a TGI (OVCAR-4 ovarian) greater than 100 µM. It also gave a TGI (COLO 205 colon) greater than 100 µM, a TGI (RPMI-8226 leukemia) greater than 100 µM and a TGI (HOP-92 NSCLC) greater than 100 µM. It also gave a TGI (DLD-1 colon) greater than 100 µM, a TGI (HL-60(TB) leukemia) greater than 100 µM and a TGI (HOP-62 NSCLC) greater than 100 µM. The TGI (SK-MEL-5 melanoma) was greater than 100 µM, the TGI (SK-OV-3 ovarian) was greater than 100 µM and the TGI (DMS 114 small cell lung) was greater than 100 µM. The TGI (HCC-2998 colon) was greater than 100 µM, the TGI (HOP-18 NSCLC) was greater than 100 µM and the TGI (KM12 colon) was greater than 100 µM. The TGI (SNB-78 CNS) was greater than 100 µM, the TGI (OVCAR-8 ovarian) was greater than 100 µM and the TGI (786-0 renal) was greater than 100 µM. The TGI (TK-10 renal) was greater than 100 µM, the TGI (SF-295 CNS) was greater than 100 µM and the TGI (K-562 leukemia) was greater than 100 µM. It also gave a TGI (UACC-257 melanoma) greater than 100 µM.

Molecule `CCO[C@@H]1OC(=O)[C@@](C)(C(C)=O)[C@@H]1C` has a TGI (NCI-H460 lung) greater than 100 µM, a TGI (SK-MEL-2 melanoma) of 52 µM and a TGI (KM20L2 colon) greater than 100 µM. The TGI (HT29 colon) was 34.6 µM, the TGI (SNB-75 CNS) was 25.7 µM and the TGI (SNB-19 CNS) was 68.3 µM. It also gave a TGI (M19-MEL melanoma) of 40.9 µM, a TGI (OVCAR-3 ovarian) of 31.4 µM and a TGI (UO-31 renal) greater than 100 µM. The TGI (MOLT-4 leukemia) was 61.1 µM, the TGI (OVCAR-5 ovarian) was greater than 100 µM and the TGI (RXF 393 renal) was 70.2 µM. It also gave a TGI (UACC-62 melanoma) of 53.3 µM, a TGI (SF-268 CNS) of 44.1 µM and a TGI (M14 melanoma) of 70.4 µM. The TGI (CCRF-CEM leukemia) was 49.5 µM, the TGI (IGROV1 ovarian) was greater than 100 µM and the TGI (NCI-H23 lung) was 28.7 µM. The TGI (NCI-H522 lung) was greater than 100 µM, the TGI (MALME-3M melanoma) was 77.5 µM and the TGI (U251 CNS) was 56.7 µM. The TGI (LXFL 529 NSCLC) was 47.6 µM, the TGI (OVCAR-4 ovarian) was greater than 100 µM and the TGI (COLO 205 colon) was greater than 100 µM. It also gave a TGI (RPMI-8226 leukemia) of 48.6 µM, a TGI (HOP-92 NSCLC) of 94.9 µM and a TGI (ACHN renal) greater than 100 µM. For the same molecule, the TGI (SR leukemia) was greater than 100 µM, the TGI (HL-60(TB) leukemia) was 78.6 µM and the TGI (HOP-62 NSCLC) was 56.6 µM. It also gave a TGI (SK-OV-3 ovarian) greater than 100 µM, a TGI (DMS 114 small cell lung) of 68.9 µM and a TGI (KM12 colon) greater than 100 µM. For the same molecule, the TGI (SNB-78 CNS) was 84.9 µM, the TGI (A498 renal) was greater than 100 µM and the TGI (SF-295 CNS) was 66 µM. It also gave a TGI (SK-MEL-28 melanoma) of 29.9 µM, a TGI (K-562 leukemia) greater than 100 µM and a TGI (UACC-257 melanoma) of 78.9 µM.

With `Cc1c2c(ccc3ccccc32)c[n+]2ccccc12` the TGI (SK-MEL-2 melanoma) was 33.7 µM, the TGI (DMS 273 small cell lung) was 28.5 µM and the TGI (KM20L2 colon) was 77 µM. For the same molecule, the TGI (HT29 colon) was greater than 100 µM, the TGI (SNB-75 CNS) was 8.94 µM and the TGI (SNB-19 CNS) was 7.89 µM. For the same molecule, the TGI (OVCAR-3 ovarian) was 19.3 µM, the TGI (SW-620 colon) was greater than 100 µM and the TGI (UO-31 renal) was greater than 100 µM. For the same molecule, the TGI (MOLT-4 leukemia) was 27.9 µM, the TGI (CAKI-1 renal) was greater than 100 µM and the TGI (OVCAR-5 ovarian) was greater than 100 µM. For the same molecule, the TGI (HCT-15 colon) was greater than 100 µM, the TGI (HCT-116 colon) was greater than 100 µM and the TGI (SF-268 CNS) was 11.3 µM. It also gave a TGI (M14 melanoma) of 40.9 µM, a TGI (A549 NSCLC) greater than 100 µM and a TGI (CCRF-CEM leukemia) of 36.5 µM. For the same molecule, the TGI (NCI-H226 lung) was 35.1 µM, the TGI (NCI-H23 lung) was 22.5 µM and the TGI (NCI-H522 lung) was 18.8 µM. For the same molecule, the TGI (SF-539 CNS) was 33.2 µM, the TGI (MALME-3M melanoma) was 6.98 µM and the TGI (U251 CNS) was 13.8 µM. The TGI (LXFL 529 NSCLC) was 28.3 µM, the TGI (OVCAR-4 ovarian) was 28.9 µM and the TGI (COLO 205 colon) was 33.7 µM. It also gave a TGI (RPMI-8226 leukemia) greater than 100 µM, a TGI (HOP-92 NSCLC) of 90.8 µM and a TGI (DLD-1 colon) greater than 100 µM. The TGI (ACHN renal) was greater than 100 µM, the TGI (SR leukemia) was 23.3 µM and the TGI (HL-60(TB) leukemia) was 68.5 µM. For the same molecule, the TGI (HOP-62 NSCLC) was 26.7 µM, the TGI (SK-MEL-5 melanoma) was 16 µM and the TGI (DMS 114 small cell lung) was 19.8 µM. The TGI (HCC-2998 colon) was 26 µM, the TGI (KM12 colon) was 11.8 µM and the TGI (OVCAR-8 ovarian) was 60.1 µM. For the same molecule, the TGI (786-0 renal) was greater than 100 µM, the TGI (TK-10 renal) was greater than 100 µM and the TGI (SF-295 CNS) was 22.5 µM. The TGI (SK-MEL-28 melanoma) was 31.1 µM, the TGI (K-562 leukemia) was 37.8 µM and the TGI (UACC-257 melanoma) was 26.5 µM.

With `O=c1nc2sc3ccc4ccccc4c3n2[nH]c1=O` the TGI (NCI-H460 lung) was greater than 100 µM, the TGI (DMS 273 small cell lung) was greater than 100 µM and the TGI (KM20L2 colon) was 99 µM. The TGI (HT29 colon) was greater than 100 µM, the TGI (SNB-75 CNS) was greater than 100 µM and the TGI (SNB-19 CNS) was greater than 100 µM. For the same molecule, the TGI (OVCAR-3 ovarian) was greater than 100 µM, the TGI (SW-620 colon) was greater than 100 µM and the TGI (MOLT-4 leukemia) was greater than 100 µM. It also gave a TGI (RXF 393 renal) of 38.1 µM, a TGI (UACC-62 melanoma) greater than 100 µM and a TGI (HCT-116 colon) greater than 100 µM. The TGI (SF-268 CNS) was greater than 100 µM, the TGI (A549 NSCLC) was greater than 100 µM and the TGI (CCRF-CEM leukemia) was greater than 100 µM. It also gave a TGI (NCI-H226 lung) greater than 100 µM, a TGI (IGROV1 ovarian) greater than 100 µM and a TGI (NCI-H23 lung) greater than 100 µM. It also gave a TGI (NCI-H522 lung) greater than 100 µM, a TGI (SF-539 CNS) greater than 100 µM and a TGI (U251 CNS) greater than 100 µM. For the same molecule, the TGI (LXFL 529 NSCLC) was greater than 100 µM, the TGI (SN12C renal) was greater than 100 µM and the TGI (EKVX NSCLC) was greater than 100 µM. It also gave a TGI (OVCAR-4 ovarian) of 81.2 µM, a TGI (COLO 205 colon) greater than 100 µM and a TGI (DLD-1 colon) greater than 100 µM. The TGI (HL-60(TB) leukemia) was greater than 100 µM, the TGI (HOP-62 NSCLC) was 71.5 µM and the TGI (SK-MEL-5 melanoma) was greater than 100 µM. For the same molecule, the TGI (SK-OV-3 ovarian) was greater than 100 µM, the TGI (DMS 114 small cell lung) was greater than 100 µM and the TGI (HCC-2998 colon) was greater than 100 µM. The TGI (HOP-18 NSCLC) was greater than 100 µM, the TGI (KM12 colon) was greater than 100 µM and the TGI (SNB-78 CNS) was greater than 100 µM. For the same molecule, the TGI (OVCAR-8 ovarian) was greater than 100 µM, the TGI (TK-10 renal) was greater than 100 µM and the TGI (SF-295 CNS) was greater than 100 µM. The TGI (SK-MEL-28 melanoma) was greater than 100 µM and the TGI (K-562 leukemia) was greater than 100 µM.
